Here are results for 33 molecules from patent publication US6610846B1, “Heteroaromatic glucokinase activators” (Hoffman-La Roche Inc., priority 1999, dated 2003).

One data set relates to C57BL/6J mice. Description: Glucokinase activator in vivo screen (blood glucose after oral dosing). Conditions: administered orally, 50 mg/kg, C57BL/6J mice fasted two hours; decrease in blood glucose compared to vehicle over six hours (Example B). As for the experimental part: Glucokinase Activator In Vivo Screen Protocol
C57BL/6J mice are orally dosed via gavage with Glucokinase (GK) activator at 50 mg/kg body weight following a two hour fasting period. Blood glucose determinations are made five times during the six hour post-dose study period. Mice (n=6) are weighed and fasted for a two hour period prior to oral treatment.

By melting point is commonly meant the temperature of the solid-liquid transition.

For the molecule `CS(=O)(=O)c1ccc(C(CC2CCCC2)C(=O)Nc2nccs2)cc1` (stereo not drawn) [Example 3(A), 3-Cyclopentyl-2-(4-methanesulfonyl-phenyl)-N-thiazol-2-yl-propionamide], the “glucokinase activator in vivo activity” value in the data set with C57BL/6J mice was “excellent glucokinase activator in vivo activity”.

Take `CS(=O)(=O)c1ccc(C(CC2CCCC2)C(=O)Nc2nccs2)cc1Cl` (stereo not drawn) [Example 12, 2-[3-Chloro-4-methanesulfonyl-phenyl]-3-cyclopentyl-N-thiazol-2-yl-propionamide]: the “glucokinase activator in vivo activity” value in the data set with C57BL/6J mice was “excellent glucokinase activator in vivo activity”. For `CS(=O)(=O)c1ccc([C@@H](CC2CCCC2)C(=O)Nc2nccs2)cc1` [Example 13, (2R)-3-Cyclopentyl-2-(4-methanesulfonylphenyl)-N-thiazol-2-yl-propionamide], in the data set on C57BL/6J mice, the “glucokinase activator in vivo activity” value was “excellent glucokinase activator in vivo activity”.

Turning to `Cc1ccc(NC(=O)C(CC2CCCC2)c2ccc(S(=O)(=O)C(F)(F)F)cc2)nc1` (stereo not drawn) [Example 43(B)(b), 3-Cyclopentyl-N-(5-methyl-pyridin-2-yl)-2-(4-trifluoromethanesulfonyl-phenyl)-propionamide], the “glucokinase activator in vivo activity” value in the data set with C57BL/6J mice is “excellent glucokinase activator in vivo activity”. For `COC(=O)c1ccc(NC(=O)C(CC2CCCC2)c2ccc(S(=O)(=O)C(F)(F)F)cc2)nc1` (stereo not drawn) [Example 43(B)(c), 6-[3-Cyclopentyl-2-(4-trifluoromethanesulfonyl-phenyl)-propionylamino]-nicotinic acid methyl ester], the “glucokinase activator in vivo activity” value with C57BL/6J mice is recorded as “excellent glucokinase activator in vivo activity”. Turning to `COC(=O)c1ccc(NC(=O)[C@H](CC2CCCC2)c2ccc(Cl)c(Cl)c2)nc1` [Example 45, 6-[3-Cyclopentyl-2(R)-(3,4-dichloro-phenyl)-propionylamino]-nicotinic acid methyl ester], the “glucokinase activator in vivo activity” value in the data set with C57BL/6J mice is “excellent glucokinase activator in vivo activity”. For the molecule `O=C(Nc1ccc(Cl)cn1)[C@H](CC1CCCC1)c1ccc(Cl)c(Cl)c1` [Example 54(A), N-(5-Chloro-pyridin-2-yl)-3-cyclopentyl-2(R)-(3,4-dichloro-phenyl)-propionamide], the “glucokinase activator in vivo activity” value in the data set on C57BL/6J mice was “excellent glucokinase activator in vivo activity”.

As for `O=C(Nc1ccccn1)[C@H](CC1CCCC1)c1ccc(Cl)c(Cl)c1` [Example 54(B)(a), 3-Cyclopentyl-2(R)-(3,4-dichloro-phenyl)-N-pyridin-2-yl-propionamide], in the data set on C57BL/6J mice, the “glucokinase activator in vivo activity” value is “excellent glucokinase activator in vivo activity”.

As for `CS(=O)(=O)c1ccc(C(CC2CCCC2)C(=O)Nc2ccccn2)cc1Cl` (stereo not drawn) [Example 92, 2-(3-Chloro-4-methanesulfonyl-phenyl)-3-cyclopentyl-N-pyridin-2-yl-propionamide], the “glucokinase activator in vivo activity” value in the data set on C57BL/6J mice is “excellent glucokinase activator in vivo activity”.

With `CS(=O)(=O)c1ccc(C(CC2CCCC2)C(=O)Nc2ccc(Br)cn2)cc1Cl` (stereo not drawn) [Example 93, N-(5-Bromo-pyridin-2-yl)-2-(3-chloro-4-methanesulfonyl-phenyl)-3-cyclopentyl-propionamide], the “glucokinase activator in vivo activity” value in the data set on C57BL/6J mice was “excellent glucokinase activator in vivo activity”. On to `O=C(O)c1ccc(NC(=O)C(CC2CCCC2)c2cccc(Cl)c2)nc1` (stereo not drawn) [Example 120, 6-[2-(3-Chloro-phenyl)-3-cyclopentyl-propionylamino]-nicotinic acid], for which the melting point was in the range of 251 to 255 °C. Take `CSc1ccc([C@@H](CC2CCCC2)C(=O)Nc2cnccn2)cc1` [Example 126, 3-Cyclopentyl-2(R)-(4-methylsulfanyl-phenyl)-N-pyrazin-2-yl-propionamide]: the melting point fell in the range of 128 to 130 °C.

Turning to `CS(=O)(=O)c1ccc([C@@H](CC2CCCC2)C(=O)Nc2cnccn2)cc1` [Example 127, 3-Cyclopentyl-2(R)-(4-methylsulfonyl-phenyl)-N-pyrazin-2-yl-propionamide], the melting point lay within 75 to 80 °C.

For `CS(=O)(=O)c1ccc(C(CC2CCCC2)C(=O)Nc2ncc(Br)s2)cc1` (stereo not drawn) [Example 132, N-(5-Bromo-thiazol-2-yl)-3-cyclopentyl-2-(4-methanesulfonyl-phenyl)-propionamide], the melting point lay in the range of 73 to 75 °C.

In turn, `CS(=O)(=O)c1ccc(C(CC2CCCC2)C(=O)Nc2ncc(C(N)=O)s2)cc1` (stereo not drawn) [Example 134, 2-[3-Cyclopentyl-2-(4-methanesulfonyl-phenyl)-propionylamino]-thiazole-5-carboxylic acid amide] registered a melting point of 155 to 160 °C. `CS(=O)(=O)c1ccc(C(CC2CCCC2)C(=O)Nc2ccccn2)cc1F` (stereo not drawn) [Example 136, 3-Cyclopentyl-2-(3-fluoro-4-methanesulfonyl-phenyl)-N-pyridin-2-yl-propionamide]: the melting point lay in the range of 76 to 79 °C. `CS(=O)(=O)c1ccc([C@@H](CC2CCCC2)C(=O)Nc2cc[nH]c(=O)n2)cc1Cl` [Example 145, 2(R)-(3-Chloro-4-methanesulfonyl-phenyl)-3-cyclopentyl-N-(2-oxo-1,2-dihydro-pyrimidin-4-yl)-propionamide] gave a melting point of over 200 °C. Molecule `CS(=O)(=O)c1ccc(C(CC2CCCC2)C(=O)Nc2ccncn2)cc1Br` (stereo not drawn) [Example 148(A), 2-(3-Bromo-4-methanesulfonyl-phenyl)-3-cyclopentyl-N-pyrimidin-4-yl-propionamide] gave a melting point of 75 to 80 °C.

Take `CS(=O)(=O)c1ccc(C(CC2CCCC2)C(=O)Nc2ncc[nH]2)cc1Br` (stereo not drawn) [Example 150, 2-(3-Bromo-4-methanesulfonyl-phenyl)-3-cyclopentyl-N-(1 H-imidazol-2-yl)-propionamide]: the melting point was > 210 °C (dec.). On the same count and under the same terms, next, `CS(=O)(=O)c1ccc(C(CC2CCCC2)C(=O)Nc2ccncn2)cc1C#N` (stereo not drawn) [Example 151, 2-(3-Cyano-4-methanesulfonyl-phenyl)-3-cyclopentyl-N-pyrimidin-4-yl-propionamide]: 79 to 84 °C; `Cc1nccc(NC(=O)C(CC2CCCC2)c2ccc(S(C)(=O)=O)c(C#N)c2)n1` (stereo not drawn) [Example 152, 2-(3-Cyano-4-methanesulfonyl-phenyl)-3-cyclopentyl-N-(2-methyl-pyrimidin-4-yl)-propionamide]: 89 to 94 °C; `CS(=O)(=O)c1ccc(C(CC2CCCC2)C(=O)Nc2cnccn2)cc1C#N` (stereo not drawn) [Example 153, 2-(3-Cyano-4-methanesulfonyl-phenyl)-3-cyclopentyl-N-pyrazin-2-yl-propionamide]: 88 to 93 °C. With `CSc1ccc(C(CC2CCCC2)C(=O)Nc2ccc([N+](=O)[O-])cn2)cc1C(F)(F)F` (stereo not drawn) [Example 154(A), 3-Cyclopentyl-2-(4-methylsulfanyl-3-trifluoromethyl-phenyl)-N-(5-nitro-pyridin-2-yl)-propionamide], the melting point was 109 to 110 °C.

Molecule `CS(=O)(=O)c1ccc(C(CC2CCCC2)C(=O)Nc2ccnc(=O)[nH]2)cc1C(F)(F)F` (stereo not drawn) [Example 155(A), 3-Cyclopentyl-2-(4-methanesulfonyl-3-trifluoromethyl-phenyl)-N-(2-oxo-2,3-dihydro-pyrimidin-4-yl)-propionamide] came in with a melting point of 236 to 238 °C. Molecule `CS(=O)(=O)c1ccc(C(CC2CCCC2)C(=O)Nc2ccc(Br)cn2)cc1C(F)(F)F` (stereo not drawn) [Example 156(A), N-(5-Bromo-pyridin-2-yl)-3-cyclopentyl-2-(4-methanesulfonyl-3-trifluoromethyl-phenyl)-propionamide] yielded a melting point of 81 to 85 °C.

In turn, `CS(=O)(=O)c1ccc(C(CC2CCCC2)C(=O)Nc2ccncn2)cc1[N+](=O)[O-]` (stereo not drawn) [Example 158, 3-Cyclopentyl-2-(4-methanesulfonyl-3-nitro-phenyl)-N-pyrimidin-4-yl-propionamide] gave a melting point of 91 to 95 °C.

For the molecule `Cc1nccc(NC(=O)C(CC2CCCC2)c2ccc(S(C)(=O)=O)c([N+](=O)[O-])c2)n1` (stereo not drawn) [Example 159, 3-Cyclopentyl-2-(4-methanesulfonyl-3-nitro-phenyl)-N-(2-methyl-pyrimidin-4-yl)-propionamide], the melting point is 96 to 99 °C. For the molecule `CS(=O)(=O)c1ccc(C(CC2CCCC2)C(=O)Nc2cc[nH]c(=O)n2)cc1[N+](=O)[O-]` (stereo not drawn) [Example 160, 3-Cyclopentyl-2-(4-methanesulfonyl-3-nitro-phenyl)-N-(2-oxo-1,2-dihydro-pyrimidin-4-yl)-propionamide], the melting point was 256 to 258 °C (dec.). In turn, `CS(=O)(=O)c1ccc(C(CC2CCCC2)C(=O)Nc2cnccn2)cc1[N+](=O)[O-]` (stereo not drawn) [Example 161, 3-Cyclopentyl-2-(4-methanesulfonyl-3-nitro-phenyl)-N-pyrazin-2-yl-propionamide] registered a melting point of 104 to 108 °C.

In turn, `CS(=O)(=O)c1ccc(C(CC2CCCC2)C(=O)Nc2ncc[nH]2)cc1[N+](=O)[O-]` (stereo not drawn) [Example 162, 3-Cyclopentyl-N-(1 H-imidazol-2-yl)-2-(4-methanesulfonyl-3-nitro-phenyl)-propionamide] had a melting point of 243 to 244 °C. For the molecule `O=C(Nc1ccc(Br)cn1)C(CC1CCCC1)c1ccc(Cl)c([N+](=O)[O-])c1` (stereo not drawn) [Example 164, N-(5-Bromo-pyridin-2-yl)-2-(4-chloro-3-nitro-phenyl)-3-cyclopentyl-propionamide], the melting point was in the range of 128 to 130 °C. Molecule `O=C(Nc1ccncn1)C(CC1CCCC1)c1cccc(C(F)(F)F)c1` (stereo not drawn) [Example 165(A), 3-Cyclopentyl-N-pyrimidin-4-yl-2-(3-trifluoromethyl-phenyl)-propionamide] gave a melting point of 113 to 115 °C. In turn, `O=C(Nc1ccc([N+](=O)[O-])cn1)C(CC1CCCC1)c1ccc(F)c(C(F)(F)F)c1` (stereo not drawn) [Example 167(A), 3-Cyclopentyl-2-(4-fluoro-3-trifluoromethyl-phenyl)-N-(5-nitro-pyridin-2-yl)-propionamide] came in with a melting point of 121 to 122 °C.
